Results taken from ChEMBL document CHEMBL4665825, “Paliasanines A-E, 3,4-Methylenedioxyquinoline Alkaloids Fused with a Phenyl-14-oxabicyclo[3.2.1]octane Unit from Melochia umbellata var. deglabrata” (J Nat Prod, 2020).
The source made the active and inactive calls. The calls are words filed in the database; no cut-off is given here.

Tests used:
MDA-MB-231 [1] = test: Antiproliferative activity against human MDA-MB-231 cells assessed as reduction in cell viability after 72 hrs by SRB assay; assay type: functional, cell-based; details: MDA-MB-231, 72 h
A549 = test: Antiproliferative activity against human A549 cells assessed as reduction in cell viability after 72 hrs by SRB assay; assay type: functional, cell-based; details: A549, 72 h
[2] = Antiproliferative activity against human KB-VIN cells assessed as reduction in cell viability after 72 hrs by SRB assay; assay type: functional, cell-based; details: KBVIN
KB = test: Antiproliferative activity against human KB cells assessed as reduction in cell viability after 72 hrs by SRB assay; assay type: functional, cell-based
MCF7 = test: Antiproliferative activity against human MCF7 cells assessed as reduction in cell viability after 72 hrs by SRB assay; assay type: functional, cell-based; details: MCF7, 72 h
[3] = test system: Human immunodeficiency virus 1; test: Antiviral activity against HIV-1 NL4-3 infected in human MT4 cells measured on day 3 by Nano-Glo luciferase assay; assay type: functional, organism-based; details: time 3.0 day
MDA-MB-231 [4] = test: Induction of cell cycle arrest in human MDA-MB-231 cells assessed as accumulation at S phase at 21 uM measured after 24 hrs by propidium iodide staining based flow cytometry analysis; assay type: functional
[5] = Selectivity ratio of IC50 for antiproliferative activity against human KB cells to IC50 for antiproliferative activity against KB-VIN cells; assay type: functional

Row | Structure (SMILES) | IC50 (MDA-MB-231 [1]) [µM] | IC50 (A549) [µM] | IC50 (KB) [µM] | IC50 (MCF7) [µM] | IC50 [2] [µM] | Activity [3] | Activity (MDA-MB-231 [4]) | Ratio IC50 [5]
1 | CC1=CC(=O)CC(C)(C)[C@@]1(O)/C=C/[C@@H](C)O [BLUMENOL A] | > 10 | > 10 | > 10 | > 10 | > 10 |  |  | 
2 | CC(=O)O[C@H]1C(=O)[C@@]2(C)[C@H]([C@H](OC(=O)c3ccccc3)[C@]3(O)C[C@H](OC(=O)[C@H](O)[C@@H](NC(=O)c4ccccc4)c4ccccc4)C(C)=C1C3(C)C)[C@]1(OC(C)=O)CO[C@@H]1C[C@@H]2O [PACLITAXEL] |  | 0.0065 | 0.0077 | 0.0135 | 2.35 |  |  | 
3 | CCCCCCCC[C@H]1CCC(=O)c2[nH]c(C)c(OC)c(=O)c21 | 6.7 | 8.4 | 17.7 | 6.4 | 8.6 |  | Active | 2
4 | CC1(C)C[C@H](O)C[C@@]2(C)OC(=O)C=C12 [LOLIOLIDE] | > 10 | > 10 | > 10 | > 10 | > 10 |  |  | 
5 | CC(C)[C@@H]1NC(=O)[C@@H](NC(=O)/C=C/c2ccccc2)[C@H](C(C)C)Oc2ccc(cc2)/C=C\NC1=O | > 10 | > 10 | > 10 | > 10 | > 10 |  |  | 
6 | CC(=O)/C=C/[C@]1(O)C(C)(C)C[C@H](O)C[C@@]1(C)O | > 10 | > 10 | > 10 | > 10 | > 10 |  |  | 
7 | CC1=CC(=O)CC(C)(C)[C@@H]1CC[C@H](C)O | > 10 | > 10 | > 10 | > 10 | > 10 |  |  | 
8 | CC[C@@H](C)[C@@H]1NC(=O)[C@@H](NC(=O)[C@H](Cc2ccccc2)N(C)C)[C@H](C(C)C)Oc2ccc(cc2)/C=C\NC1=O | > 10 | 9.5 | > 10 | > 10 | > 10 |  |  | 

Further lines, with some results ahead:

Row | IC50 (MDA-MB-231 [1]) [µM] | IC50 (A549) [µM] | IC50 (KB) [µM] | IC50 (MCF7) [µM] | Structure (SMILES) | IC50 [2] [µM] | Activity [3] | Activity (MDA-MB-231 [4]) | Ratio IC50 [5]
9 | > 10 | > 10 | > 10 | > 10 | COc1ccc(OC)c([C@@]2(O)c3ccc4nc(C)c5c(c4c3[C@@H]3CC[C@H]2O3)OCO5)c1 | > 10 | inactive |  | 
10 | > 10 | > 10 | > 10 | > 10 | COc1ccccc1[C@@]1(O)c2ccc3nc(C)c4c(c3c2[C@@H]2CC[C@H]1O2)OCO4 | > 10 | inactive |  | 
11 | > 10 | > 10 | > 10 | > 10 | Cc1nc2ccc3c(c2c2c1OCO2)[C@@H]1CC[C@H](O)[C@@]3(c2ccccc2)O1 | > 10 | inactive |  | 
12 | > 10 | > 10 | > 10 | > 10 | COc1ccc(OC)c([C@]2(O)c3ccc4nc(C)c5c(c4c3[C@@H]3CC[C@H]2O3)OCO5)c1 | > 10 |  |  | 
13 | > 10 | 6.6 | > 10 | 8 | COc1ccccc1[C@@]1(O)c2ccc3[nH]c(C)c(OC)c(=O)c3c2[C@@H]2CC[C@H]1O2 | > 10 |  |  | 
14 | > 10 | > 10 | > 10 | > 10 | CCCCCCCCc1ccc(OC)c2[nH]c(C)c(OC)c(=O)c12 | > 10 |  |  | 
15 | > 10 | > 10 | > 10 | > 10 | COc1ccccc1[C@]1(O)c2ccc3nc(C)c4c(c3c2[C@@H]2CC[C@H]1O2)OCO4 | > 10 |  |  | 
16 | > 10 | 5.9 | > 10 | 8.2 | COc1ccc(OC)c([C@@]2(O)c3ccc4[nH]c(C)c(OC)c(=O)c4c3[C@@H]3CC[C@H]2O3)c1 | > 10 |  |  | 
